Results published in patent US20240025884A1 (Dong-A ST Co., Ltd., priority 2022, published 2024).

molecular target: GCN2 (Homo sapiens (Human), UniProt Q9P2K8); assay: GCN2 Biochemical Assay (TR-FRET, GFP-eIF2S1 substrate phosphorylation); settings: read-out: IC50 (GCN2 Inhibitory Activity)
Method in brief: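 In-house GCN2 (1.6 nM 2× stock) phosphorylates GFP-eIF2S1 (50 nM 2× stock) with ATP (0.2 mM 2× stock) and tRNA, pH 7.5, 70 min at room temperature; 10-point 3.16-fold compound series. TR-FRET detection with Tb-anti-phospho antibody, 2–3 h, Ex 340/Em 490/520 nm; artifact plate spiked with phospho-substrate.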

Chain of GCN2 (Q9P2K8 whole entry): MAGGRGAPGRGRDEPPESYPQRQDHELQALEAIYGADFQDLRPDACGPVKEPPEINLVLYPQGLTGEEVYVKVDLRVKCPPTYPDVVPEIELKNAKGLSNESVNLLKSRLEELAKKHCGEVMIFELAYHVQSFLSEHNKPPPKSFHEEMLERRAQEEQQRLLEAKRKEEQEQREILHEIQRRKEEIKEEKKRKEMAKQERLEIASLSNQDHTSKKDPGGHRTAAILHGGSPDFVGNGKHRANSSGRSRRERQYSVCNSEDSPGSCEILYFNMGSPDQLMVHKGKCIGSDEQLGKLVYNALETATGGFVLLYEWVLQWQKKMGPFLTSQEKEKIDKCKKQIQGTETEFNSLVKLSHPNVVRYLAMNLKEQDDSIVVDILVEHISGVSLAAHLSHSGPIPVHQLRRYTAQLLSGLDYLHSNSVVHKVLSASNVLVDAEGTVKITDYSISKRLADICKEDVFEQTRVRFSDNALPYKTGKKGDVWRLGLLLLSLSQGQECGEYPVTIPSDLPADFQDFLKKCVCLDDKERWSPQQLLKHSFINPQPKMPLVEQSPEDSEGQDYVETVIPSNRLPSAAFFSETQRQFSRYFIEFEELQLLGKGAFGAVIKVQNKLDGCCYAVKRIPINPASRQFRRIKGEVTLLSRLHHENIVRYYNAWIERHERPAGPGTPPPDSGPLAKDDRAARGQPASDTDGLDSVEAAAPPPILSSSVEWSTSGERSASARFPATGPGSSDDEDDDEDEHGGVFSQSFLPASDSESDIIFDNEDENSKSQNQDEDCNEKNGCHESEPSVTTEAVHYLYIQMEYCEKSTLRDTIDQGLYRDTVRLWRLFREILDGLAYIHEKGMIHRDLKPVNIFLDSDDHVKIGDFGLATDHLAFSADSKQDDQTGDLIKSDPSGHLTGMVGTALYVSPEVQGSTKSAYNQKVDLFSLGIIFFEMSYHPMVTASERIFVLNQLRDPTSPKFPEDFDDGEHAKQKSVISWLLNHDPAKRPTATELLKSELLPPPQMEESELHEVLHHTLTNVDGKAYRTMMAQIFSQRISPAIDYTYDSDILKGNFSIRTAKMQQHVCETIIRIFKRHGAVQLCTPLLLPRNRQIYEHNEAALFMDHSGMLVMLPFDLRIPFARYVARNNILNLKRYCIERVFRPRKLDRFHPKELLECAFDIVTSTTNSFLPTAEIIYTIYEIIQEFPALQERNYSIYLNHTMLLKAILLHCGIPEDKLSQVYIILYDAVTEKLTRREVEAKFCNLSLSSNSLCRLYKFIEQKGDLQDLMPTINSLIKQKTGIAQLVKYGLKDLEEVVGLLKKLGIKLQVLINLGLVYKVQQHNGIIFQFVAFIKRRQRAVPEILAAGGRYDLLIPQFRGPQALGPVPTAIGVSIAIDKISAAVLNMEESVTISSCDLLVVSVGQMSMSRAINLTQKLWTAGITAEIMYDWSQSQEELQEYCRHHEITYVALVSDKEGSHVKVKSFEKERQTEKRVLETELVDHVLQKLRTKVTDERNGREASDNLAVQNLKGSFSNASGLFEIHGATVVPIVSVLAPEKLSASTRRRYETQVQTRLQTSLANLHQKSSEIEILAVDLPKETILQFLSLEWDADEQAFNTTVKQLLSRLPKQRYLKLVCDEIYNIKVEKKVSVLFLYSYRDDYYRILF

IC50 | Structure (SMILES)
10 to 100 nM | Cc1cnc(Nc2cc(C)n(C)n2)nc1-c1c[nH]c2c(NC(=O)CN3CC[C@H](Oc4cc(NC5CCCCC5)ncn4)C3)cccc12 [Example 152, (S)-2-(3-((6-(cyclohexylamino)pyrimidin-4-yl)oxy)pyrrolidin-1-yl)-N-(3-(2-((1,5-dimethyl-1H-pyrazol-3-yl)amino)-5-methylpyrimidin-4-yl)-1H-indol-7-yl)acetamide]
< 10 nM | Cc1cnc(Nc2cc(C)n(C)n2)nc1-c1c[nH]c2c(NC(=O)CN3CC[C@H](Oc4cc(N(C)C)ncn4)C3)cccc12 [Example 153, (S)-N-(3-(2-((1,5-dimethyl-1H-pyrazol-3-yl)amino)-5-methylpyrimidin-4-yl)-1H-indol-7-yl)-2-(3-((6-(dimethylamino)pyrimidin-4-yl)oxy)pyrrolidin-1-yl)acetamide]
10 to 100 nM | CCCN(CC)c1cc(O[C@H]2CCN(CC(=O)Nc3cccc4c(-c5nc(Nc6cc(C)n(C)n6)ncc5C)c[nH]c34)C2)ncn1 [Example 156, (S)-N-(3-(2-((1,5-dimethyl-1H-pyrazol-3-yl)amino)-5-methylpyrimidin-4-yl)-1H-indol-7-yl)-2-(3-((6-(ethyl(propyl)amino)pyrimidin-4-yl)oxy)pyrrolidin-1-yl)acetamide]
10 to 100 nM | CCCCN(CC)c1cc(O[C@H]2CCN(CC(=O)Nc3cccc4c(-c5nc(Nc6cc(C)n(C)n6)ncc5C)c[nH]c34)C2)ncn1 [Example 157, (S)-2-(3-((6-(butyl(ethyl)amino)pyrimidin-4-yl)oxy)pyrrolidin-1-yl)-N-(3-(2-((1,5-dimethyl-1H-pyrazol-3-yl)amino)-5-methylpyrimidin-4-yl)-1H-indol-7-yl)acetamide]
< 10 nM | Cc1cnc(Nc2cc(C)n(C)n2)nc1-c1c[nH]c2c(NC(=O)CN3CC[C@H](Oc4cc(N5CC[C@@H](O)C5)ncn4)C3)cccc12 [Example 160, N-(3-(2-((1,5-dimethyl-1H-pyrazol-3-yl)amino)-5-methylpyrimidin-4-yl)-1H-indol-7-yl)-2-((S)-3-((6-((R)-3-hydroxypyrrolidin-1-yl)pyrimidin-4-yl)oxy)pyrrolidin-1-yl)acetamide]
< 10 nM | Cc1cnc(Nc2cc(C)n(C)n2)nc1-c1c[nH]c2c(NC(=O)CN3CC[C@H](Oc4cc(N5CC[C@H](O)C5)ncn4)C3)cccc12 [Example 161, N-(3-(2-((1,5-dimethyl-1H-pyrazol-3-yl)amino)-5-methylpyrimidin-4-yl)-1H-indol-7-yl)-2-((S)-3-((6-((S)-3-hydroxypyrrolidin-1-yl)pyrimidin-4-yl)oxy)pyrrolidin-1-yl)acetamide]
< 10 nM | CNc1cc(O[C@H]2CCN(CC(=O)Nc3cccc4c(-c5nc(Nc6cc(C)n(C)n6)ncc5C)c[nH]c34)C2)nc(N)n1 [Example 166, (S)-2-(3-((2-amino-6-(methylamino)pyrimidin-4-yl)oxy)pyrrolidin-1-yl)-N-(3-(2-((1,5-dimethyl-1H-pyrazol-3-yl)amino)-5-methylpyrimidin-4-yl)-1H-indol-7-yl)acetamide]
< 10 nM | Cc1cnc(Nc2cc(C)n(C)n2)nc1-c1c[nH]c2c(NC(=O)CN3CC[C@H](Oc4nccc(N)n4)C3)cccc12 [Example 168, (S)-2-(3-((4-aminopyrimidin-2-yl)oxy)pyrrolidin-1-yl)-N-(3-(2-((1,5-dimethyl-1H-pyrazol-3-yl)amino)-5-methylpyrimidin-4-yl)-1H-indol-7-yl)acetamide]
< 10 nM | CNc1ccnc(O[C@H]2CCN(CC(=O)Nc3cccc4c(-c5nc(Nc6cc(C)n(C)n6)ncc5C)c[nH]c34)C2)n1 [Example 169, (S)-N-(3-(2-((1,5-dimethyl-1H-pyrazol-3-yl)amino)-5-methylpyrimidin-4-yl)-1H-indol-7-yl)-2-(3-((4-(methylamino)pyrimidin-2-yl)oxy)pyrrolidin-1-yl)acetamide]
< 10 nM | Cc1cnc(Nc2cc(C)n(C)n2)nc1-c1c[nH]c2c(NC(=O)CN3CC[C@H](Oc4nccc(N(C)C)n4)C3)cccc12 [Example 170, (S)-N-(3-(2-((1,5-dimethyl-1H-pyrazol-3-yl)amino)-5-methylpyrimidin-4-yl)-1H-indol-7-yl)-2-(3-((4-(dimethylamino)pyrimidin-2-yl)oxy)pyrrolidin-1-yl)acetamide]
< 10 nM | CCN(CC)c1ccnc(O[C@H]2CCN(CC(=O)Nc3cccc4c(-c5nc(Nc6cc(C)n(C)n6)ncc5C)c[nH]c34)C2)n1 [Example 172, (S)-2-(3-((4-(diethylamino)pyrimidin-2-yl)oxy)pyrrolidin-1-yl)-N-(3-(2-((1,5-dimethyl-1H-pyrazol-3-yl)amino)-5-methylpyrimidin-4-yl)-1H-indol-7-yl)acetamide]
< 10 nM | Cc1cnc(Nc2cc(C)n(C)n2)nc1-c1c[nH]c2c(NC(=O)CN3CC[C@H](Oc4nccc(N5CCCCC5)n4)C3)cccc12 [Example 174, (S)-N-(3-(2-((1,5-dimethyl-1H-pyrazol-3-yl)amino)-5-methylpyrimidin-4-yl)-1H-indol-7-yl)-2-(3-((4-(piperidin-1-yl)pyrimidin-2-yl)oxy)pyrrolidin-1-yl)acetamide]

Second part, the compound before the results:

Structure (SMILES) | IC50
Cc1cnc(Nc2cc(C)n(C)n2)nc1-c1c[nH]c2c(NC(=O)CN3CC[C@H](Oc4cc(NC5CC5)ncn4)C3)cccc12 [Example 151, (S)-2-(3-((6-(cyclopropylamino)pyrimidin-4-yl)oxy)pyrrolidin-1-yl)-N-(3-(2-((1,5-dimethyl-1H-pyrazol-3-yl)amino)-5-methylpyrimidin-4-yl)-1H-indol-7-yl)acetamide] | < 10 nM
CCN(C)c1cc(O[C@H]2CCN(CC(=O)Nc3cccc4c(-c5nc(Nc6cc(C)n(C)n6)ncc5C)c[nH]c34)C2)ncn1 [Example 154, (S)-N-(3-(2-((1,5-dimethyl-1H-pyrazol-3-yl)amino)-5-methylpyrimidin-4-yl)-1H-indol-7-yl)-2-(3-((6-(ethyl(methyl)amino)pyrimidin-4-yl)oxy)pyrrolidin-1-yl)acetamide] | < 10 nM
CCN(CC)c1cc(O[C@H]2CCN(CC(=O)Nc3cccc4c(-c5nc(Nc6cc(C)n(C)n6)ncc5C)c[nH]c34)C2)ncn1 [Example 155, (S)-2-(3-((6-(diethylamino)pyrimidin-4-yl)oxy)pyrrolidin-1-yl)-N-(3-(2-((1,5-dimethyl-1H-pyrazol-3-yl)amino)-5-methylpyrimidin-4-yl)-1H-indol-7-yl)acetamide] | 10 to 100 nM
Cc1cnc(Nc2cc(C)n(C)n2)nc1-c1c[nH]c2c(NC(=O)CN3CC[C@H](Oc4cc(N5CCCC5)ncn4)C3)cccc12 [Example 158, (S)-N-(3-(2-((1,5-dimethyl-1H-pyrazol-3-yl)amino)-5-methylpyrimidin-4-yl)-1H-indol-7-yl)-2-(3-((6-(pyrrolidin-1-yl)pyrimidin-4-yl)oxy)pyrrolidin-1-yl)acetamide] | < 10 nM
Cc1cnc(Nc2cc(C)n(C)n2)nc1-c1c[nH]c2c(NC(=O)CN3CC[C@H](Oc4cc(N5CCC(O)C5)ncn4)C3)cccc12 (stereo partly drawn) [Example 159, N-(3-(2-((1,5-dimethyl-1H-pyrazol-3-yl)amino)-5-methylpyrimidin-4-yl)-1H-indol-7-yl)-2-((3S)-3-((6-(3-hydroxypyrrolidin-1-yl)pyrimidin-4-yl)oxy)pyrrolidin-1-yl)acetamide] | < 10 nM
Cc1cnc(Nc2cc(C)n(C)n2)nc1-c1c[nH]c2c(NC(=O)CN3CC[C@H](Oc4cc(N5CCCCC5)ncn4)C3)cccc12 [Example 162, (S)-N-(3-(2-((1,5-dimethyl-1H-pyrazol-3-yl)amino)-5-methylpyrimidin-4-yl)-1H-indol-7-yl)-2-(3-((6-(piperidin-1-yl)pyrimidin-4-yl)oxy)pyrrolidin-1-yl)acetamide] | < 10 nM
Cc1cnc(Nc2cc(C)n(C)n2)nc1-c1c[nH]c2c(NC(=O)CN3CC[C@H](Oc4cc(N5CCC(O)CC5)ncn4)C3)cccc12 [Example 163, (S)-N-(3-(2-((1,5-dimethyl-1H-pyrazol-3-yl)amino)-5-methylpyrimidin-4-yl)-1H-indol-7-yl)-2-(3-((6-(4-hydroxypiperidin-1-yl)pyrimidin-4-yl)oxy)pyrrolidin-1-yl)acetamide] | < 10 nM
Cc1cnc(Nc2cc(C)n(C)n2)nc1-c1c[nH]c2c(NC(=O)CN3CC[C@H](Oc4cc(N5CCOCC5)ncn4)C3)cccc12 [Example 164, (S)-N-(3-(2-((1,5-dimethyl-1H-pyrazol-3-yl)amino)-5-methylpyrimidin-4-yl)-1H-indol-7-yl)-2-(3-((6-morpholinopyrimidin-4-yl)oxy)pyrrolidin-1-yl)acetamide] | < 10 nM
Cc1cnc(Nc2cc(C)n(C)n2)nc1-c1c[nH]c2c(NC(=O)CN3CC[C@H](Oc4cc(N5CCN(C)CC5)ncn4)C3)cccc12 [Example 165, (S)-N-(3-(2-((1,5-dimethyl-1H-pyrazol-3-yl)amino)-5-methylpyrimidin-4-yl)-1H-indol-7-yl)-2-(3-((6-(4-methylpiperazin-1-yl)pyrimidin-4-yl)oxy)pyrrolidin-1-yl)acetamide] | < 10 nM
Cc1cnc(Nc2cc(C)n(C)n2)nc1-c1c[nH]c2c(NC(=O)CN3CC[C@H](Oc4cc(N5CCCC5)nc(N)n4)C3)cccc12 [Example 167, (S)-2-(3-((2-amino-6-(pyrrolidin-1-yl)pyrimidin-4-yl)oxy)pyrrolidin-1-yl)-N-(3-(2-((1,5-dimethyl-1H-pyrazol-3-yl)amino)-5-methylpyrimidin-4-yl)-1H-indol-7-yl)acetamide] | 10 to 100 nM
CCN(C)c1ccnc(O[C@H]2CCN(CC(=O)Nc3cccc4c(-c5nc(Nc6cc(C)n(C)n6)ncc5C)c[nH]c34)C2)n1 [Example 171, (S)-N-(3-(2-((1,5-dimethyl-1H-pyrazol-3-yl)amino)-5-methylpyrimidin-4-yl)-1H-indol-7-yl)-2-(3-((4-(ethyl(methyl)amino)pyrimidin-2-yl)oxy)pyrrolidin-1-yl)acetamide] | < 10 nM
Cc1cnc(Nc2cc(C)n(C)n2)nc1-c1c[nH]c2c(NC(=O)CN3CC[C@H](Oc4nccc(N5CCCC5)n4)C3)cccc12 [Example 173, (S)-N-(3-(2-((1,5-dimethyl-1H-pyrazol-3-yl)amino)-5-methylpyrimidin-4-yl)-1H-indol-7-yl)-2-(3-((4-(pyrrolidin-1-yl)pyrimidin-2-yl)oxy)pyrrolidin-1-yl)acetamide] | < 10 nM
